ChEMBL document CHEMBL1151933, “Identification of a disruptor of the MDM2-p53 protein-protein interaction facilitated by high-throughput in silico docking” (Bioorg Med Chem Lett, 2009)

What was measured:
[1] = Inhibition of GST-tagged MDM2 (1-150) / full-length His6-tagged p53 interaction expressed in Escherichia coli by alphascreen assay
[2] = Inhibition of GST-tagged MDM2/His6-tagged p53 interaction by ELISA
[3] = Inhibition of GST-tagged MDM2/His6-tagged p53 interaction at 100 uM by ELISA

Compound	IC50 [1]	IC50 [2]	inhibition [3]
c1ccc(/C(=N/Nc2nc3ccccc3s2)c2ccccn2)cc1.c1ccc(/C(=N\Nc2nc3ccccc3s2)c2ccccn2)cc1 (mixture of isomers; form 1)	13 µM	–	–
c1ccc(/C(=N/Nc2nc3ccccc3s2)c2ccccn2)cc1.c1ccc(/C(=N\Nc2nc3ccccc3s2)c2ccccn2)cc1 (mixture of isomers; form 2) [listing 1 of 2 here]	25 µM	20 µM	–
c1ccc(/C(=N/Nc2nc3ccccc3s2)c2ccccn2)cc1.c1ccc(/C(=N\Nc2nc3ccccc3s2)c2ccccn2)cc1 (mixture of isomers; form 2) [listing 2 of 2 here]	–	–	> 50%
COc1ccc(C2=N[C@@H](c3ccc(Cl)cc3)[C@@H](c3ccc(Cl)cc3)N2C(=O)N2CCNC(=O)C2)c(OC(C)C)c1 [NUTLIN-3]	0.25 µM	–	–
